Measured values: patent US20230330234A1, “HYPERBRANCHED POLYESTER POLYOL DERIVATIVE AS DRUG SOLUBILIZER” (FREIE UNIVERSITÄT BERLIN, priority 2020, published 2023)
In brackets after ≈: the same amount, converted by molar mass. Read-outs that look alike come from different tables or passages of the source.

Tests used:
physchem = conditions: aqueous with cosolvent or surfactant or cyclodextrin, thermodynamic from solid
[1] = Carrying potential of h(PG-co-PCL)60S0.95 by elemental analysis; type: physicochemical; conditions: calculated by elemental analysis
Description: The carrying potential (CP) of the polymer (solubilizing agent) is obtained as the ratio of the loaded and solubilized drug to the amount of solubilizing agent (Eq. 1).
For drugs presenting an absorption band at wavelength lower than 400 nm, the UV-VIS approach is not suitable, due to drug signals overlapping with signals of the solubilizing agent. Therefore, elemental analysis is chosen as alternative approach. The drugs chosen for the solubilization and entrapment contain nitrogen atoms, which are not present in the polymer structure. Via the quantification of the nitrogen content in the sample, it is possible to determine the amount of drug in it. For the loading quantification, the same equation is used as in the previous case.
The following tables (Table 5, Table 6 and Table 7) show the results of the performed analyses. In this context, h(PG-co-PCL)60S0.95 was used as hyperbranched polyester polyol derivative. Its non-sulfated backbone has a molecular weight of 60 kDa. The polyester polyol derivative has a sulfation degree of 95%.

[2] = Size and Z-potential investigation by DLS in PB; type: physicochemical; conditions: h(PG-co-PCL)60S0.95 with solubilized drug
Description: The following tables (Table 5, Table 6 and Table 7) show the results of the performed analyses. In this context, h(PG-co-PCL)60S0.95 was used as hyperbranched polyester polyol derivative. Its non-sulfated backbone has a molecular weight of 60 kDa.

solubility at 18 h (physchem) [µg/mL] | solubility (Solubility in water; Solubility in water) [µg/mL] | Structure (SMILES) | other results
> 300 | 2 (≈ 3.11 µM) | CCN1[C@@H](C(=O)NC23CCC(C(=O)O)(CC2)CC3)[C@H](c2cccc(Cl)c2F)[C@]2(C(=O)Nc3cc(Cl)ccc32)C12CCCCC2 [APG-115] | –
> 300 | 10 (≈ 20.6 µM) | CN(C)C/C=C/C(=O)Nc1cc2c(Nc3ccc(F)c(Cl)c3)ncnc2cc1O[C@H]1CCOC1 [Afatinib] | –
> 300 | 5 (≈ 11.3 µM) | Cc1nc(NC(=O)N2CCC[C@H]2C(N)=O)sc1-c1ccnc(C(C)(C)C(F)(F)F)c1 [Alpelisib] | –
> 300 | – | CNC(=O)c1ccccc1Sc1ccc2c(/C=C/c3ccccn3)n[nH]c2c1 [Axitinib] | Solubility in water (Solubility in water): 0.5 µg/mL (≈ 1.29 µM)
> 300 | 50 (≈ 85.1 µM) | CCN(CCCOc1ccc2c(Nc3cc(CC(=O)Nc4cccc(F)c4)n[nH]3)ncnc2c1)CCOP(=O)(O)O [Barasertib] | –
> 300 | 30 (≈ 94.2 µM) | O=C(/C=C/c1cccc(S(=O)(=O)Nc2ccccc2)c1)NO [Belinostat] | –
> 300 | 50 (≈ 113 µM) | Cn1cnc2c(F)c(Nc3ccc(Br)cc3F)c(C(=O)NOCCO)cc21 [Binimetinib] | –
> 300 | 50 (≈ 130 µM) | CC(C)C[C@H](NC(=O)[C@H](Cc1ccccc1)NC(=O)c1cnccn1)B(O)O [Bortezomib] | –
– | – | C=CC(=O)Nc1ccc2[nH]c(=O)n(C3CCN(Cc4ccc(-c5nc6cc[nH]c(=O)c6cc5-c5ccccc5)cc4)CC3)c2c1 [Borussertib] | Carrying potential [1]: 12% wt %
> 300 | 10 (≈ 18.9 µM) | COc1cc(Nc2c(C#N)cnc3cc(OCCCN4CCN(C)CC4)c(OC)cc23)c(Cl)cc1Cl [Bosutinib] | –
> 300 | 2 (≈ 3.99 µM) | COc1cc2nccc(Oc3ccc(NC(=O)C4(C(=O)Nc5ccc(F)cc5)CC4)cc3)c2cc1OC [Cabozantinib] | –
> 300 | 40 (≈ 75.3 µM) | O=C(c1ccc(F)c(F)c1Nc1ccc(I)cc1F)N1CC(O)([C@@H]2CCCCN2)C1 [Cobimetinib] | –
< 100 | – | COc1cc(/C=C/C(=O)CC(=O)/C=C/c2ccc(O)c(OC)c2)ccc1O [Curcumin] | Solubility in water (Solubility in water): 6 µg/mL (≈ 16.3 µM)
> 300 | 30 (≈ 57.7 µM) | CC(C)(C)c1nc(-c2cccc(NS(=O)(=O)c3c(F)cccc3F)c2F)c(-c2ccnc(N)n2)s1 [Dabrafenib] | Carrying potential [1]: 1% wt %; Size (volume) ([2]; DLS in PB, in nm (unit assumed)): 12 ± 1; Z-potential ([2]; in PB, in mV (unit assumed)): −29.6
> 300 | 9 (≈ 19.2 µM) | COc1cc2ncnc(Nc3ccc(F)c(Cl)c3)c2cc1NC(=O)/C=C/CN1CCCCC1 [Dacomitinib] | –
> 300 | – | Cc1nc(Nc2ncc(C(=O)Nc3c(C)cccc3Cl)s2)cc(N2CCN(CCO)CC2)n1 [Dasatinib] | –
< 100 | – | C[C@@H]1C[C@H]2[C@@H]3CCC4=CC(=O)C=C[C@]4(C)[C@@]3(F)[C@@H](O)C[C@]2(C)[C@@]1(O)C(=O)CO [Dexamethasone] | –
> 300 | 10 (≈ 18.5 µM) | COC(=O)N[C@@H](C)CNc1nccc(-c2cn(C(C)C)nc2-c2cc(Cl)cc(NS(C)(=O)=O)c2F)n1 [Encorafenib] | –
> 300 | 5 (≈ 13.3 µM) | Nc1ccccc1NC(=O)c1ccc(CNC(=O)OCc2cccnc2)cc1 [Entinostat] | –
> 300 | 9 (≈ 16.1 µM) | CN1CCN(c2ccc(C(=O)Nc3n[nH]c4ccc(Cc5cc(F)cc(F)c5)cc34)c(NC3CCOCC3)c2)CC1 [Entrectinib] | –
> 300 | 10 (≈ 25.4 µM) | C#Cc1cccc(Nc2ncnc3cc(OCCOC)c(OCCOC)cc23)c1 [Erlotinib] | –
> 300 | 2 (≈ 3.93 µM) | COc1ccc(-c2nc(N3CCOCC3)c3sc(CN(C)c4ncc(C(=O)NO)cn4)cc3n2)cn1 [Fimepinostat] | –
> 300 | 1 (≈ 1.85 µM) | CCCc1cc(C)[nH]c(=O)c1CNC(=O)c1cc(-c2ccnc(N3CCN(C)CC3)c2)cc2c1cnn2C(C)C [GSK343] | –
> 300 | 7 (≈ 16.4 µM) | Cn1ncc(Cl)c1-c1cc(C(=O)N[C@H](CN)Cc2cccc(F)c2)sc1Cl [GSK2110183] | –
> 300 | 40 (≈ 65 µM) | CN(C)C1CCN(C(=O)c2ccc(NC(=O)Nc3ccc(-c4nc(N5CCOCC5)nc(N5CCOCC5)n4)cc3)cc2)CC1 [Gedatolisib] | –
> 300 | 50 (≈ 134 µM) | CN1CC[C@@H](NC(=O)Nc2ccc(C#N)cc2)C[C@@H]1c1nc2ccccc2[nH]1 [Glasdegib] | –

solubility at 18 h (physchem) [µg/mL] | solubility (Solubility in water; Solubility in water) [µg/mL] | Structure (SMILES) | other results
> 300 | 20 (≈ 45.4 µM) | C=CC(=O)N1CCC[C@@H](n2nc(-c3ccc(Oc4ccccc4)cc3)c3c(N)ncnc32)C1 [Ibrutinib] | –
< 100 | – | CC(C)Cc1ccc(C(C)C(=O)O)cc1 (centres unmarked) [Ibuprofen] | –
> 300 | 1 (≈ 1.62 µM) | COc1cc(C(=O)O)ccc1NC(=O)[C@@H]1N[C@@H](CC(C)(C)C)[C@](C#N)(c2ccc(Cl)cc2F)[C@H]1c1cccc(Cl)c1F [Idasanutlin] | –
> 300 | 50 (≈ 109 µM) | CC(C)NC[C@@H](C(=O)N1CCN(c2ncnc3c2[C@H](C)C[C@H]3O)CC1)c1ccc(Cl)cc1 [Ipatasertib] | –
> 300 | 80 (≈ 197 µM) | CO[C@@H](C)Cn1c(=O)n(C)c2cnc3ccc(-c4cncc(C(C)(C)O)c4)cc3c21 [LY3023414] | –
> 300 | 100 (≈ 246 µM) | C[C@H]1Oc2cc(cnc2N)-c2c(nn(C)c2C#N)CN(C)C(=O)c2ccc(F)cc21 [Lorlatinib] | –
> 300 | 8 (≈ 20.2 µM) | Nc1ccccc1NC(=O)c1ccc(CNc2nccc(-c3cccnc3)n2)cc1 [Mocetinostat] | –
> 300 | 80 (≈ 166 µM) | COc1ccc([C@@H](O)c2cc(-c3ncnc4cc(N5CCOCC5)ccc34)c(F)cc2Cl)nn1 [Nedisertib] | –
> 300 | 6 (≈ 10.8 µM) | CCOc1cc2ncc(C#N)c(Nc3ccc(OCc4ccccn4)c(Cl)c3)c2cc1NC(=O)/C=C/CN(C)C [Neratinib] | –
> 300 | 2 (≈ 3.78 µM) | Cc1cn(-c2cc(NC(=O)c3ccc(C)c(Nc4nccc(-c5cccnc5)n4)c3)cc(C(F)(F)F)c2)cn1 [Nilotinib] | –
> 300 | 10 (≈ 31.2 µM) | NC(=O)c1cccc2cn(-c3ccc([C@@H]4CCCNC4)cc3)nc12 [Niraparib] | –
> 300 | 120 (≈ 276 µM) | O=C(c1cc(Cc2n[nH]c(=O)c3ccccc23)ccc1F)N1CCN(C(=O)C2CC2)CC1 [Olaparib] | –
> 300 | – | Cc1ccc(Nc2nccc(N(C)c3ccc4c(C)n(C)nc4c3)n2)cc1S(N)(=O)=O [Pazopanib] | Solubility in water (Solubility in water): 40 µg/mL (≈ 91.4 µM)
> 300 | 2 (≈ 3.76 µM) | Cc1ccc(C(=O)Nc2ccc(CN3CCN(C)CC3)c(C(F)(F)F)c2)cc1C#Cc1cnc2cccnn12 [Ponatinib] | –
> 300 | 4 (≈ 9.07 µM) | Cn1nccc1Nc1nccc(-c2ccn([C@H](CO)c3ccc(Cl)c(F)c3)c(=O)c2)n1 [Ravoxertinib] | –
> 300 | – | CNC(=O)c1cc(Oc2ccc(NC(=O)Nc3ccc(Cl)c(C(F)(F)F)c3)c(F)c2)ccn1 [Regorafenib] | Solubility in water (Solubility in water): 1 µg/mL (≈ 2.07 µM)
> 300 | 10 (≈ 30.9 µM) | CNCc1ccc(-c2[nH]c3cc(F)cc4c3c2CCNC4=O)cc1 [Rucaparib] | –
> 300 | – | N#CC[C@H](C1CCCC1)n1cc(-c2ncnc3[nH]ccc23)cn1 [Ruxolitinib] | –
> 300 | 2 (≈ 3.56 µM) | CC(C)(C)C[C@@H]1N[C@@H](C(=O)N[C@H]2CC[C@H](O)CC2)[C@H](c2cccc(Cl)c2F)[C@]12C(=O)Nc1cc(Cl)ccc12 [SAR405838] | –
> 300 | 40 (≈ 87.4 µM) | Cn1cnc2c(F)c(Nc3ccc(Br)cc3Cl)c(C(=O)NOCCO)cc21 [Selumetinib] | –
> 300 | 1 (≈ 1.8 µM) | COc1ncc(-c2nc3c(n2C(C)C)[C@H](c2ccc(Cl)cc2)N(c2cc(Cl)cn(C)c2=O)C3=O)c(OC)n1 [Siremadlin] | –
> 300 | 100 (≈ 263 µM) | Cn1ncnc1[C@H]1c2n[nH]c(=O)c3cc(F)cc(c23)N[C@@H]1c1ccc(F)cc1 [Talazoparib] | –
> 300 | 4 (≈ 9.23 µM) | CC(C)Nc1cc(-c2c[nH]c(C(=O)N[C@H](CO)c3cccc(Cl)c3)c2)c(Cl)cn1 [Ulixertinib] | –
> 300 | 30 (≈ 69.9 µM) | Cn1ncc(Cl)c1-c1cc(C(=O)N[C@H](CN)Cc2ccc(F)c(F)c2)oc1Cl [Uprosertib] | –
> 300 | 0.3 (≈ 0.612 µM) | CCCS(=O)(=O)Nc1ccc(F)c(C(=O)c2c[nH]c3ncc(-c4ccc(Cl)cc4)cc23)c1F [Vemurafenib] | –

Structure (SMILES) | solubility at 18 h (physchem) [µg/mL] | solubility (Solubility in water; Solubility in water) [µg/mL] | other results
Nc1ncccc1-c1nc2ccc(-c3ccccc3)nc2n1-c1ccc(C2(N)CCC2)cc1 [Miransertib] | > 300 | – | solubility (Solubility in water): 60 µg/mL (≈ 139 µM)
C=CC(=O)Nc1cc(Nc2nccc(-c3cn(C)c4ccccc34)n2)c(OC)cc1N(C)CCN(C)C [Osimertinib] | > 300 | 20 (≈ 40 µM) | –
